# From ChEMBL document CHEMBL5154942, “Discovery of Clinical Candidate NTQ1062 as a Potent and Bioavailable Akt Inhibitor for the Treatment of Human Tumors” (J Med Chem, 2022)
# Assays:
# cells = conditions: Homo sapiens, COLO 704, 72 h
# TOV21G = experiment: cells; conditions: Homo sapiens, 72 h
# Description: Antiproliferative activity against human TOV-21G habouring PTEN deletion and PIK3CA mutation/amplication assessed as reduction in cell viability incubated for 72 hrs by Cell Titer Glo luminescent assay
# T47D = experiment: cells; conditions: Homo sapiens, 72 h
# Description: Antiproliferative activity against human T47D habouring PIK3CA mutation/amplication assessed as reduction in cell viability incubated for 72 hrs by Cell Titer Glo luminescent assay
# ZR-75-1 = experiment: cells; conditions: Homo sapiens, ZR-75-1, 72 h
# Description: Antiproliferative activity against human ZR-75-1 habouring PTEN deletion mutant assessed as reduction in cell viability incubated for 72 hrs by Cell Titer Glo luminescent assay
# C-33-A = experiment: cells; conditions: Homo sapiens, 72 h
# Description: Antiproliferative activity against human C-33-A habouring PTEN deletion mutant assessed as reduction in cell viability incubated for 72 hrs by Cell Titer Glo luminescent assay
# PC-3 = experiment: cells; conditions: Homo sapiens, PC-3, 72 h
# Description: Antiproliferative activity against human PC-3 habouring PTEN deletion and PIK3CA mutation/amplication assessed as reduction in cell viability incubated for 72 hrs by Cell Titer Glo luminescent assay
# CAL-51 = experiment: cells; conditions: Homo sapiens, CAL-51, 72 h
# Description: Antiproliferative activity against human CAL-51 habouring PTEN deletion and PIK3CA mutation/amplication assessed as reduction in cell viability incubated for 72 hrs by Cell Titer Glo luminescent assay
# RL95-2 = experiment: cells; conditions: Homo sapiens, RL95-2, 72 h
# Description: Antiproliferative activity against human RL95-2 habouring PTEN deletion mutant assessed as reduction in cell viability incubated for 72 hrs by Cell Titer Glo luminescent assay
# [1] = target: RAC-alpha serine/threonine-protein kinase (Homo sapiens, UniProt P31749); experiment: Inhibition of recombinant AKT1 (104 to 480 end residues) (unknown origin) catalytic domain expressed in Sf21 cells using peptide substrate incubated for 1 hr in presence of ATP by caliper off-chip mobility shift assay
# LNCaP [2] = experiment: Antiproliferative activity against human LNcap assessed as reduction in cell viability incubated for 72 hrs by Cell Titer Glo luminescent assay
# [3] = AUC (0 to infinity) in overnight fasted ICR mouse at 10 mg/kg, po measured upto 24 hrs by UPLC-MS/MS analysis; type: ADME, organism-based; parameters: dose 10 mg/kg, time < 24 hrs, route po; conditions: in vivo
# Cytochrome P450 3A4 = Cytochrome P450 3A4 (Homo sapiens, UniProt P08684); experiment: Inhibition of CYP3A4 in human liver microsomes at 0.01 to 30 uM […] in presence of NADPH by UPLC-MS/MS analysis; type: ADME, Microsome
# Cytochrome P450 2C19 = Cytochrome P450 2C19 (Homo sapiens, UniProt P33261); experiment: Inhibition of CYP2C19 in human liver microsomes at 0.01 to 30 uM using mephenytoin as substrate in presence of NADPH by UPLC-MS/MS analysis; type: ADME, Microsome
# Cytochrome P450 2C9 = Cytochrome P450 2C9 (Homo sapiens, UniProt P11712); experiment: Inhibition of CYP2C9 in human liver microsomes at 0.01 to 30 uM using diclofenac as substrate in presence of NADPH by UPLC-MS/MS analysis; type: ADME, Microsome
# Cytochrome P450 1A2 = target: T1, Cytochrome P450 1A2 (Homo sapiens, UniProt P05177); experiment: Inhibition of CYP1A2 in human liver microsomes at 0.01 to 30 uM […] in presence of NADPH by UPLC-MS/MS analysis; type: ADME, Microsome
# T1 sequence (P05177 whole entry): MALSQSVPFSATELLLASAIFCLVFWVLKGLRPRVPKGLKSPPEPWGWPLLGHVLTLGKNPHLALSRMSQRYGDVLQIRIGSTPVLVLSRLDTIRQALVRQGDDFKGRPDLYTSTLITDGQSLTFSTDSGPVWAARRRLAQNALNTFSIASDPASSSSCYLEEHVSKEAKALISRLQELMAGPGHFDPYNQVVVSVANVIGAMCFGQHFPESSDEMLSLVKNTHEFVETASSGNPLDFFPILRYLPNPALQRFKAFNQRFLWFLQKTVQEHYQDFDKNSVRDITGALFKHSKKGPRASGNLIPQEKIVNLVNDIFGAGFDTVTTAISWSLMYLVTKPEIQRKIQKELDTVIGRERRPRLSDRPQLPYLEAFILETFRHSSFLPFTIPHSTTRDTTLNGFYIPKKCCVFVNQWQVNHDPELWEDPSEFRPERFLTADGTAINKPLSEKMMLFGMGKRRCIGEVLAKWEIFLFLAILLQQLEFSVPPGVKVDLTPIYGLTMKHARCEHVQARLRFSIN
# Cytochrome P450 2D6 = Cytochrome P450 2D6 (Homo sapiens, UniProt P10635); experiment: Inhibition of CYP2D6 in human liver microsomes at 0.01 to 30 uM using dextromethorphan as substrate in presence of NADPH by UPLC-MS/MS analysis; type: ADME, Microsome
# LNCaP [4] = experiment: In vivo antitumor activity against human LNCap cells xenografted in NCG mouse assessed as tumor growth inhibition at 50 mg/kg administered once daily for 18 to 21 days relative to control; type: functional; conditions: time 18-21 day, read-out: TGI
# [5] = Oral bioavailability in overnight fasted ICR mouse at 10 mg/kg measured upto 24 hrs by UPLC-MS/MS analysis; type: ADME, organism-based; conditions: in vivo
# [6] = Tmax in overnight fasted ICR mouse at 10 mg/kg, po measured upto 24 hrs by UPLC-MS/MS analysis; type: ADME, organism-based; conditions: in vivo
# [7] = Plasma protein binding in human assessed as unbound fraction at 1 to 100 uM incubated for 16 hrs by UPLC-MS/MS analysis; type: ADME, cell-free; conditions: dose 1-100 µM
# [8] = AUC (0 to infinity) in ICR mouse at 2 mg/kg, iv measured upto 24 hrs by UPLC-MS/MS analysis; type: ADME, organism-based; parameters: dose 2 mg/kg, time < 24 hrs, route iv; conditions: in vivo
# [9] = Clearance in ICR mouse at 2 mg/kg, iv measured upto 24 hrs by UPLC-MS/MS analysis; type: ADME, organism-based; conditions: in vivo
# [10] = Half life in ICR mouse at 2 mg/kg, iv measured upto 24 hrs by UPLC-MS/MS analysis; type: ADME, organism-based; conditions: in vivo
# [11] = MRT(0 to t) in overnight fasted ICR mouse at 10 mg/kg, po measured upto 24 hrs by UPLC-MS/MS analysis; type: ADME, organism-based; conditions: in vivo
# [12] = Plasma protein binding in human at 1 to 100 uM incubated for 16 hrs by UPLC-MS/MS analysis; type: ADME, cell-free; conditions: dose 1-100 µM, read-out: PPB (converted)
# [13] = Plasma protein binding in mouse at 1 to 100 uM incubated for 16 hrs by UPLC-MS/MS analysis; type: ADME, cell-free; conditions: dose 1-100 µM, read-out: PPB (converted)
# [14] = Cmax in overnight fasted ICR mouse at 10 mg/kg, po measured upto 24 hrs by UPLC-MS/MS analysis; type: ADME, organism-based; parameters: dose 10 mg/kg, time < 24 hrs, route po; conditions: in vivo
# Cytochrome P450 2C19, sequence (P33261 whole entry): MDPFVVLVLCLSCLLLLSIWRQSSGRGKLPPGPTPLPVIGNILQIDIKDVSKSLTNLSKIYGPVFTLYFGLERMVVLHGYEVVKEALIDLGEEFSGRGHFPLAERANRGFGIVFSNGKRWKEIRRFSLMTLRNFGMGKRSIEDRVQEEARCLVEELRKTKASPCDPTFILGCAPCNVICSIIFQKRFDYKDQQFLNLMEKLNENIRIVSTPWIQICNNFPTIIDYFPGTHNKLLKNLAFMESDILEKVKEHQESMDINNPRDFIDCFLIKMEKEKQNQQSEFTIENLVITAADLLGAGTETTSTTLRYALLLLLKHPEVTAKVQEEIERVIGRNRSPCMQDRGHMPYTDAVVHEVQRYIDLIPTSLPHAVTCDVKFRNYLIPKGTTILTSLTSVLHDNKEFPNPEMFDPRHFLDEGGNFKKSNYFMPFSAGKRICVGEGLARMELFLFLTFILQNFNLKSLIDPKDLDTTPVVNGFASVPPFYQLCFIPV
# RAC-alpha serine/threonine-protein kinase, sequence (P31749 whole entry, the tested form may be a part): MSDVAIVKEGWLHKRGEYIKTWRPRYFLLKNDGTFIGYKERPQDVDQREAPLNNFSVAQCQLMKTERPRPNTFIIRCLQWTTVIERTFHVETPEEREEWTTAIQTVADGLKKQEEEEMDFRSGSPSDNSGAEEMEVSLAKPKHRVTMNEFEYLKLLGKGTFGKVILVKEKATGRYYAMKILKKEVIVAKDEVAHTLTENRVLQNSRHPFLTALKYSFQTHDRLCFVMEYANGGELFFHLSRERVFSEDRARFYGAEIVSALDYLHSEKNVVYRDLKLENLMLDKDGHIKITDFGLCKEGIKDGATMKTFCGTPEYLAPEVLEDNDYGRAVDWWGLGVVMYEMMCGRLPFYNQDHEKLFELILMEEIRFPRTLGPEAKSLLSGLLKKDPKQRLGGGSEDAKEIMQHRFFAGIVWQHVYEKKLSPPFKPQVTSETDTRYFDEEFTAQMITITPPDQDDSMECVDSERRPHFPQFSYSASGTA
# Cytochrome P450 3A4, sequence (P08684 whole entry): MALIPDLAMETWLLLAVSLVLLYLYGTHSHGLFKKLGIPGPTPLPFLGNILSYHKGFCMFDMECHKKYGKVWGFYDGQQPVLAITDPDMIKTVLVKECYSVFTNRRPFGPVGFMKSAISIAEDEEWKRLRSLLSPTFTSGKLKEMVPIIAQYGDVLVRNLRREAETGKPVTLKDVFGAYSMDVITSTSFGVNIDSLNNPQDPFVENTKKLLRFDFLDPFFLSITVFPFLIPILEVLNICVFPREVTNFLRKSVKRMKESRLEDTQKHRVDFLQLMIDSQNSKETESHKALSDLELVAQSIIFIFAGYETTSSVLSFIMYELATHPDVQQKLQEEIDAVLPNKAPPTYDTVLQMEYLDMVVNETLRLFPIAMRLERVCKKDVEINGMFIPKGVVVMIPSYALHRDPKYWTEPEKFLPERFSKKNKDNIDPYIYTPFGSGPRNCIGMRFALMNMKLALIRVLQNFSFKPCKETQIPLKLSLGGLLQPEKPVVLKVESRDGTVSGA
# Cytochrome P450 2D6, sequence (P10635 whole entry): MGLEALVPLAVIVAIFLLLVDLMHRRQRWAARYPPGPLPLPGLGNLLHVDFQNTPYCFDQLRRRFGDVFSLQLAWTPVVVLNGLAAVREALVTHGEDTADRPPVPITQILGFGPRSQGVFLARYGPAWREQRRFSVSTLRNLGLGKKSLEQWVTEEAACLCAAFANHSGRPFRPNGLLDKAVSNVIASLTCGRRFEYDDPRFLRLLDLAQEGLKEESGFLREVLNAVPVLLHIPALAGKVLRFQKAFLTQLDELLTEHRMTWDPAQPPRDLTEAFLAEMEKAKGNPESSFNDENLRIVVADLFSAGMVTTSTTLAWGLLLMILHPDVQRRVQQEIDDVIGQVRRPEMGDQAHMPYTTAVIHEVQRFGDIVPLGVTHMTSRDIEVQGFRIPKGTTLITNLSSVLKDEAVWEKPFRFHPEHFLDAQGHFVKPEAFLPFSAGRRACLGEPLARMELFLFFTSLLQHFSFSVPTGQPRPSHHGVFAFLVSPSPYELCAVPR
# Cytochrome P450 2C9, sequence (P11712 whole entry): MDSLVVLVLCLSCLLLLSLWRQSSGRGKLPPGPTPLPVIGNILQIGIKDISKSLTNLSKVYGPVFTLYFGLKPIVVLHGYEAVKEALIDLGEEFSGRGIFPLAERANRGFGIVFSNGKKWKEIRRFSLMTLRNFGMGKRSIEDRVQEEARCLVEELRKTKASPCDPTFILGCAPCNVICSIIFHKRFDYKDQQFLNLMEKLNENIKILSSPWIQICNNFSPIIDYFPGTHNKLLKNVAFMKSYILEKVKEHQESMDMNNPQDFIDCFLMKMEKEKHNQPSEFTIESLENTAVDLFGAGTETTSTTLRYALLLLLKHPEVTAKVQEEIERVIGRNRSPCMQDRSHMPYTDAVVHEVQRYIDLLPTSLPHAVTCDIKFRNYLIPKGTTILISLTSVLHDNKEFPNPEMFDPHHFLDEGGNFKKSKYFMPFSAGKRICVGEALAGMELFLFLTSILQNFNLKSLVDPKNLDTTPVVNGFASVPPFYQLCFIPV
structure (smiles),measurement,setting,value
CC(C)NC[C@@H](C(=O)N1CCN(c2ncnc3c2[C@H](C)C[C@H]3O)CC1)c1ccc(Cl)cc1 [IPATASERTIB],IC50,cells,945 nM
same,IC50,TOV21G,715 nM
same,IC50,T47D,328 nM
same,IC50,ZR-75-1,1320 nM
same,IC50,C-33-A,726 nM
same,IC50,PC-3,3540 nM
same,IC50,CAL-51,265 nM
same,IC50,RL95-2,331 nM
CC(C)NC[C@@H](C(=O)N1C[C@H]2CC[C@@H](C1)N2c1ncnc2c1N(C)CC(=O)N2)c1ccc(Cl)cc1,IC50,[1],30 nM
CC(C)NC[C@@H](C(=O)N1C2CCC1CN(c1ncnc3c1[C@H](C)CC(=O)N3)C2)c1ccc(Cl)cc1,IC50,LNCaP [2],79 nM
same,AUC(0-inf),[3],911 ng·h/mL
CC(C)NC[C@@H](C(=O)N1CCN(c2ncnc3c2[C@H](C)CC(=O)N3)C[C@@H]1C)c1ccc(Cl)cc1,IC50,[1],220 nM
Cc1c(CO)ncnc1N1CCN(C(=O)[C@H](CNC(C)C)c2ccc(Cl)cc2)CC1,IC50,[1],> 1000 nM
CC(C)NC[C@@H](C(=O)N1CCN(c2cc[nH]c(=O)c2)CC1)c1ccc(Cl)cc1,IC50,[1],> 1000 nM
C[C@@H]1CC(=O)Nc2ncnc(N3CCN(C(=O)[C@H](CN)c4ccc(Cl)cc4)[C@@H]4C[C@@H]43)c21,IC50,Cytochrome P450 3A4,10100 nM
same,IC50,Cytochrome P450 2C19,> 30000 nM
same,IC50,Cytochrome P450 2C9,> 30000 nM
same,IC50,Cytochrome P450 1A2,6480 nM
same,IC50,Cytochrome P450 2D6,> 30000 nM
same,IC50,[1],6.8 nM
CC(C)NC[C@@H](C(=O)N1CCN(c2ncnc3c2[C@@H](C)CC(=O)N3)CC1)c1ccc(Cl)cc1,IC50,[1],> 1000 nM
CC(C)NC[C@@H](C(=O)N1C[C@H]2CC[C@@H](C1)N2c1ncnc2c1[C@H](C)OC(=O)N2)c1ccc(Cl)cc1,inhibition in vivo at 50 mg/kg,LNCaP [4],28%
same,IC50,LNCaP [2],236 nM
same,AUC(0-inf),[3],3030 ng·h/mL
same,IC50,[1],1.6 nM
C[C@@H]1CC(=O)Nc2ncnc(N3CCN(C(=O)[C@H](CNC4C5COCC54)c4ccc(Cl)cc4)[C@@H]4C[C@@H]43)c21 (stereo partly specified),IC50,Cytochrome P450 3A4,4330 nM
same,IC50,Cytochrome P450 2C19,> 30000 nM
same,IC50,Cytochrome P450 2C9,> 30000 nM
same,IC50,Cytochrome P450 1A2,> 30000 nM
same,IC50,Cytochrome P450 2D6,> 30000 nM
same,IC50,[1],4.1 nM
CC(C)NC[C@@H](C(=O)N1CCC(c2ncnc3c2[C@H](C)CC(=O)N3)CC1)c1ccc(Cl)cc1,IC50,[1],> 1000 nM
C[C@@H]1CC(=O)Nc2ncnc(N3CCN(C(=O)[C@H](CNC4CC4)c4ccc(Cl)cc4)[C@@H]4C[C@@H]43)c21,IC50,Cytochrome P450 3A4,1090 nM
same,IC50,Cytochrome P450 2C19,> 30000 nM
same,IC50,Cytochrome P450 2C9,> 30000 nM
same,IC50,Cytochrome P450 1A2,> 30000 nM
same,IC50,Cytochrome P450 2D6,> 30000 nM
CC(C)NC[C@@H](C(=O)N1CC=C(c2ncnc3c2[C@H](C)CC(=O)N3)CC1)c1ccc(Cl)cc1,IC50,[1],951 nM
CC(C)NC[C@@H](C(=O)N1CC2CCC(C1)N2c1ncnc2c1[C@H](C)CC(=O)N2)c1ccc(Cl)cc1,IC50,LNCaP [2],446 nM
same,AUC(0-inf),[3],1480 ng·h/mL
CC(C)NC[C@@H](C(=O)N1CCN(c2ncnc3c2[C@H](C)OC(=O)N3)[C@H]2C[C@H]21)c1ccc(Cl)cc1,inhibition in vivo at 50 mg/kg,LNCaP [4],94.1%
same,IC50,LNCaP [2],201 nM
same,bioavailability,[5],26.5%
same,AUC(0-inf),[3],2580 ng·h/mL
same,IC50,[1],0.6 nM
[2H]C1([2H])N(C(=O)[C@H](CNC(C)C)c2ccc(Cl)cc2)C([2H])([2H])C([2H])([2H])N(c2ncnc3c2[C@H](C)CC(=O)N3)C1([2H])[2H],IC50,LNCaP [2],131 nM
same,AUC(0-inf),[3],947 ng·h/mL
same,IC50,[1],1.6 nM
CC(C)NC[C@@H](C(=O)N1[C@@H]2CC[C@H]1CN(c1ncnc3c1[C@H](C)OC(=O)N3)C2)c1ccc(Cl)cc1,IC50,LNCaP [2],84 nM
same,AUC(0-inf),[3],727 ng·h/mL
same,IC50,[1],0.6 nM
CC(C)NC[C@@H](C(=O)N1CCN(c2ncnc3c2[C@H](C)CC(=O)N3)CC1)c1ccc(Cl)cc1,IC50,Cytochrome P450 3A4,39200 nM
same,IC50,Cytochrome P450 2C19,> 50000 nM
same,Tmax,[6],2 h
same,"fraction unbound at 16 h, up to 100 µM",[7],0.513
same,inhibition in vivo at 50 mg/kg,LNCaP [4],50%
same,IC50,LNCaP [2],103 nM
same,bioavailability,[5],26.6%
same,IC50,Cytochrome P450 2C9,> 50000 nM
same,AUC(0-inf),[8],181 ng·h/mL
same,clearance,[9],178 mL/min/kg
same,AUC(0-inf),[3],241 ng·h/mL
same,IC50,Cytochrome P450 1A2,25200 nM
same,half-life,[10],1.56 h
same,MRT last at 24 h,[11],2.23 h
same,"fraction unbound at 16 h, up to 100 µM",[12],0.513
same,"fraction unbound at 16 h, up to 100 µM",[13],0.477
same,IC50,Cytochrome P450 2D6,> 50000 nM
same,IC50,[1],1.6 nM
same,Cmax,[14],84.3 ng/mL
CC(C)NC[C@@H](C(=O)N1CC2(C1)CN(c1ncnc3c1[C@H](C)CC(=O)N3)C2)c1ccc(Cl)cc1,IC50,[1],> 1000 nM
COC1CCC(NC[C@@H](C(=O)N2CCN(c3ncnc4c3[C@H](C)CC(=O)N4)[C@H]3C[C@H]32)c2ccc(Cl)cc2)CC1 (stereo partly specified),IC50,Cytochrome P450 3A4,1810 nM
same,IC50,Cytochrome P450 2C19,30000 nM
same,IC50,Cytochrome P450 2C9,30000 nM
same,IC50,Cytochrome P450 1A2,30000 nM
same,IC50,Cytochrome P450 2D6,30000 nM
same,IC50,[1],1.3 nM
CC(C)NC[C@@H](C(=O)N1C2CCC1CN(c1ncnc3c1N(C)CC(=O)N3)C2)c1ccc(Cl)cc1.O=CO,inhibition in vivo at 50 mg/kg,LNCaP [4],34.5%
same,IC50,LNCaP [2],279 nM
same,AUC(0-inf),[3],2290 ng·h/mL
CC(C)NC[C@@H](C(=O)N1CC2CC1CN2c1ncnc2c1[C@H](C)CC(=O)N2)c1ccc(Cl)cc1 (stereo partly specified),IC50,[1],414 nM
